Laboratory results reported in ChEMBL document CHEMBL1145461 (J Med Chem, 2007).

How the values were obtained:
[1] = target: T1, Steroid 17-alpha-hydroxylase/17,20 lyase (Homo sapiens, UniProt P05093); test: (§1) Inhibition of human CYP17 expressed in Escherichia coli at 2.5 uM; conditions: 2.5 µM
T1 sequence (P05093 whole entry): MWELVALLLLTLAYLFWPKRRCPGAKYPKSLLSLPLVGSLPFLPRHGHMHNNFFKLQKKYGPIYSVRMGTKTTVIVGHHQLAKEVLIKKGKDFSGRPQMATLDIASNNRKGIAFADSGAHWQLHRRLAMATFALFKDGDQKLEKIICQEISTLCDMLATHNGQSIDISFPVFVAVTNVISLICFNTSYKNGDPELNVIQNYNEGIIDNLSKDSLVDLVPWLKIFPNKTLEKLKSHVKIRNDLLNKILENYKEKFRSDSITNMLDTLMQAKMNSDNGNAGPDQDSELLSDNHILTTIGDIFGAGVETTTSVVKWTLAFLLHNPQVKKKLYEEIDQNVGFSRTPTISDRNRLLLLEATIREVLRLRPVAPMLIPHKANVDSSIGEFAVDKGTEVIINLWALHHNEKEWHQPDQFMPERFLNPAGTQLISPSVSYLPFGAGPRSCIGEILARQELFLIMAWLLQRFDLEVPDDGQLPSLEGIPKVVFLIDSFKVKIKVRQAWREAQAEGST

Aromatase = target: T2, Aromatase (Homo sapiens, UniProt P11511); test: Inhibition of CYP19 in human placental microsomes; design: species or system Placenta
T2 sequence (P11511 whole entry): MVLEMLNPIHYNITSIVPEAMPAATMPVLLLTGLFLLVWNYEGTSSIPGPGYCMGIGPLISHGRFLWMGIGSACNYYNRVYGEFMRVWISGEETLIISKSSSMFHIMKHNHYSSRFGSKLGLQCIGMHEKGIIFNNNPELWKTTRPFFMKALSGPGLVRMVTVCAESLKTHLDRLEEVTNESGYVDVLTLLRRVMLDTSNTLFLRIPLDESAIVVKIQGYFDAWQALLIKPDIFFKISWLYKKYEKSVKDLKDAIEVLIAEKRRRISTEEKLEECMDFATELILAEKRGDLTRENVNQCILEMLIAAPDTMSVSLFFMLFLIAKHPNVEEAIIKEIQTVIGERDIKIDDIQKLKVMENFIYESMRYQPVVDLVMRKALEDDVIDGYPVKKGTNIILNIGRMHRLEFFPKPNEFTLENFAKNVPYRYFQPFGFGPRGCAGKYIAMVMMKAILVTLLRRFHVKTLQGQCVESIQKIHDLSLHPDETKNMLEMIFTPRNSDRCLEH

[2] = target: T3, CYP17 (steroid 17-alpha-hydroxylase/17,20 lyase) (Homo sapiens, UniProt P05093); test: as §1; conditions: recombinant human CYP17 expressed in Escherichia coli
T3 sequence (P05093 whole entry): T1 sequence (P05093 whole entry)

For O=C(c1ccccc1)c1ccccc1Cn1ccnc1, the Inhibition [1] was “Not Active” and the IC50 (Aromatase) was 0.56 µM.

In the case of O=C(c1ccccc1)c1cccc(Cn2ccnc2)c1, the Inhibition [1] is reported as “Not Active” and the IC50 (Aromatase) is reported as 0.0073 µM.

With O=C(c1ccccc1)c1cc(Cn2ccnc2)ccc1[N+](=O)[O-] the Inhibition [1] was “Not Active” and the IC50 (Aromatase) was 0.031 µM.

With O=C(c1ccccc1)c1cc([N+](=O)[O-])ccc1Cn1ccnc1 the Inhibition [1] was “Not Active” and the IC50 (Aromatase) was 0.0259 µM.

In the case of O=C(c1ccccc1)c1cc(Br)ccc1Cn1ccnc1, the inhibition at 2.5 µM [2] is reported as 15% and the IC50 (Aromatase) is reported as 0.4 µM.

N#Cc1ccc(C2CCCc3cncn32)cc1 (stereo not drawn) [FADROZOLE] was tested, and the Inhibition [1] was “Not Active”.

For O=C(c1ccc(-c2ccccc2)cc1)c1ccccc1Cn1ccnc1, the inhibition at 2.5 µM [2] was 24% and the IC50 (Aromatase) was 0.26 µM.

O=C(c1ccc(-c2ccccc2)cc1)c1cccc(Cn2ccnc2)c1 was tested, and the Inhibition [1] was “Not Active” and the IC50 (Aromatase) was 0.0053 µM.

In the case of O=C(c1ccccc1)c1ccc(Cn2ccnc2)cc1, the Inhibition [1] is reported as “Not Active”.

O=C(c1ccc(-c2ccccc2)cc1)c1cc([N+](=O)[O-])ccc1Cn1ccnc1 showed an inhibition at 2.5 µM [2] of 17% and an IC50 (Aromatase) of 0.0177 µM.
